Tests used:
[1] = organism: Homo sapiens; test: In vitro inhibitory activity for the aggregation of human platelets induced by U-46,619 (1 uM) was determined; type: functional
[2] = organism: Cavia porcellus; test: Extra vivo inhibitory activity of compound for the aggregation of guinea pig platelets induced by U-46,619 (4 uM) was determined; type: functional, organism-based
[3] = organism: Cavia porcellus; test: In vitro inhibitory activity for the aggregation of guinea pig platelets induced by U-46,619 (4 uM) was determined; type: functional
[4] = molecular target: T1, Thromboxane A2 receptor (Rattus norvegicus, UniProt P34978); test: In vitro thromboxane A2 antagonistic activity on U-46619 (0.1 uM) induced contraction of rat aorta; type: functional, tissue-based
T1 sequence (P34978 whole entry): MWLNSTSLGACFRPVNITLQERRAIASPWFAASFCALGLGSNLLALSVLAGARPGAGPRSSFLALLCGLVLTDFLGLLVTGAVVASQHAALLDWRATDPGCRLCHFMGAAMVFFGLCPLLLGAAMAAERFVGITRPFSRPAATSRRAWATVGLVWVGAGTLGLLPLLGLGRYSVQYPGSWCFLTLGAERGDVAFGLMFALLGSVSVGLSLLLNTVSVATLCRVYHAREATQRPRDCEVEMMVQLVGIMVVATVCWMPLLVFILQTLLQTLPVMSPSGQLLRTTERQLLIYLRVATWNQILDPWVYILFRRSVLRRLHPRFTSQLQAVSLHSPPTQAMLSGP

[5] = tested on: Cavia porcellus; test: Extra vivo inhibitory activity of compound (0.3 mg/kg p.o.) on the aggregation of guinea pig platelets induced by U-46619 (1 uM); type: functional
[6] = tested on: Cavia porcellus; test: Ex vivo inhibitory activity (0.3 mg/kg p.o.) on the aggregation of guinea pig platelets induced by arachidonic acid (100 uM); type: functional
[7] = organism: Cavia porcellus; test: Extra vivo inhibitory activity for the aggregation of guinea pig platelets induced by U-46,619 (4 uM) was determined; type: functional, organism-based

| SMILES | IC50 [4] [nM] | Inhibition [5] [%] | Inhibition [6] [%] | also measured |
| --- | --- | --- | --- | --- |
| O=C(O)Cc1ccc2c(c1)CC(CNS(=O)(=O)c1cccnc1)C2 (configuration not stated) | 1900 | – | – | – |
| O=C(O)Cc1ccc2c(c1)CC(CNS(=O)(=O)C1CCCCC1)C2 (configuration not stated) | 1200 | – | – | – |
| O=C(O)Cc1ccc2c(c1)CC(CNS(=O)(=O)c1cccc3ccccc13)C2 (configuration not stated) | 295 | – | – | – |
| O=C([O-])Cc1ccc2c(c1)CC(CNS(=O)(=O)c1ccc3ccccc3c1)C2.[Na+] (configuration not stated) | 22.4 | 100 | 100 | IC50 [1]: 290 nM; ED50 [7]: 0.13 mg/kg; IC50 [3]: 310 nM |
| O=C(O)Cc1ccc2c(c1)CC(CNS(=O)(=O)c1ccccc1)C2 (configuration not stated) | 12.9 | – | – | – |
| O=C(O)Cc1ccc2c(c1)CC(CNS(=O)(=O)c1ccc(Cl)cc1)O2 (configuration not stated) | 141 | – | – | – |
| O=C(O)Cc1ccc2c(c1)CC(CNS(=O)(=O)Cc1ccccc1)C2 (configuration not stated) | 5900 | – | – | – |
| O=C(O)Cc1ccc2c(c1)CC(NS(=O)(=O)c1ccc(Cl)cc1)C2 (configuration not stated) | 2.19 | – | – | – |
| O=C(O)Cc1ccc2c(c1)CC(CNS(=O)(=O)c1cccs1)C2 (configuration not stated) | 85.1 | – | – | – |
| O=C(O)Cc1ccc(CCNS(=O)(=O)c2ccc(Cl)cc2)cc1 [DALTROBAN] | – | 55 | 25 | IC50 [1]: 370 nM; ED50 [7]: 0.53 mg/kg; IC50 [3]: 500 nM |
| CCCCCS(=O)(=O)NCC1Cc2ccc(CC(=O)O)cc2C1 (configuration not stated) | 1400 | – | – | – |
| O=C(O)c1ccc2c(c1)CC(CCNS(=O)(=O)c1ccc(Cl)cc1)C2 (configuration not stated) | 66.1 | – | – | – |

Further lines, with some results ahead:

| IC50 [4] [nM] | SMILES | Inhibition [5] [%] | Inhibition [6] [%] | also measured |
| --- | --- | --- | --- | --- |
| 3.02 | O=C([O-])Cc1ccc2c(c1)CC(CNS(=O)(=O)c1ccc(Cl)cc1)C2.[Na+] (configuration not stated) | 100 | 100 | IC50 [1]: 280 nM; ED50 [2]: 0.063 mg/kg; IC50 [3]: 270 nM |
| 977 | O=C(O)Cc1ccc2c(c1)CC(CCCCNS(=O)(=O)c1ccc(Cl)cc1)C2 (configuration not stated) | – | – | – |
| 85.1 | O=C(O)c1ccc2c(c1)CC(CCCNS(=O)(=O)c1ccc(Cl)cc1)C2 (configuration not stated) | – | – | – |
| 14.8 | O=C([O-])CCc1ccc2c(c1)CC(CNS(=O)(=O)c1ccc(Cl)cc1)C2.[Na+] (configuration not stated) | 98 | 57 | – |
| 35.5 | O=C(O)CCCCc1ccc2c(c1)CC(CNS(=O)(=O)c1ccc(Cl)cc1)C2 (configuration not stated) | – | – | – |
| > 479 | O=C(O)c1ccc2c(c1)CC(CCCCNS(=O)(=O)c1ccc(Cl)cc1)C2 (configuration not stated) | – | – | – |
| 31.6 | O=C([O-])Cc1ccc2c(c1)CC(CCNS(=O)(=O)c1ccc(Cl)cc1)C2.[Na+] (configuration not stated) | 96 | 83 | – |
| 26.3 | O=C([O-])c1ccc2c(c1)CC(CNS(=O)(=O)c1ccc(Cl)cc1)C2.[Na+] (configuration not stated) | 58 | 29 | – |
| 513 | O=C(O)Cc1ccc2c(c1)CC(CCCNS(=O)(=O)c1ccc(Cl)cc1)C2 (configuration not stated) | – | – | – |
| 38.9 | O=C([O-])CCCc1ccc2c(c1)CC(CNS(=O)(=O)c1ccc(Cl)cc1)C2.[Na+] (configuration not stated) | 100 | 100 | IC50 [1]: 2690 nM; ED50 [2]: 0.083 mg/kg; IC50 [3]: 230 nM |

Reference: ChEMBL document CHEMBL1131926, “Synthesis and thromboxane A2 antagonistic activity of indane derivatives” (Bioorg Med Chem Lett, 1999)
